# Test results taken from patent publication US20220106304A1, “Transcription Factor BRN2 Inhibitory Compounds as Therapeutics and Methods for Their Use” (The University of British Columbia, priority 2018, published 2022).
# Columns and labels:
# [1] = biological target: T1, BRN2 (Homo sapiens, UniProt P20265); assay: Drug Affinity Responsive Target Stability (DARTS) assay; type: binding; set-up: endogenous in cells; host or cells: 42D^ENZR cells; details: 42D^ENZR cell lysate, yes/no direct interaction with BRN2
# T1 sequence (P20265 1-443): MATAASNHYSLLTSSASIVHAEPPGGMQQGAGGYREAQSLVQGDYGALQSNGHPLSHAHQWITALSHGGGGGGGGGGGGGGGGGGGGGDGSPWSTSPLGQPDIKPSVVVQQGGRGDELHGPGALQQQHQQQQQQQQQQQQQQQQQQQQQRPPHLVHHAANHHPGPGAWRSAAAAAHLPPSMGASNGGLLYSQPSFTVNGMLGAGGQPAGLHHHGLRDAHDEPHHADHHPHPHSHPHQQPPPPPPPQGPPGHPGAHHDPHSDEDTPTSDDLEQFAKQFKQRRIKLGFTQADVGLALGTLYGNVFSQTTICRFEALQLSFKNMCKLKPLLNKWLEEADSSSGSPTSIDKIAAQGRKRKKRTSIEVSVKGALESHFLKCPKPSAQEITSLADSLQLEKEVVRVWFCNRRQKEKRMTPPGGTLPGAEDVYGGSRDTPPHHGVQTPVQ
# Description: This in cell assay provides a yes/no answer to direct interaction between BRN2 inhibitor and protein. • i) Prepare and place the following on ice: • Pronase • TNC 10× • −500 mM Tris-HCl (pH 8.0) • −500 mM NaCl, 100 mM CaCl2 • DMSO • Drug • 10 mL NP40+Protease inhibitor+Phosphatase inhibitor solution (can store in 4° C. and use for up to 4 weeks): • −2 mL NP40 5× • −8 mL ddH2O • −1 PhosphoSTOP™ pill • −200 uL protease inhibitor 50×
# 2) Remove the growth medium from the cell plate (42D^ENZR) and add 10 mL of cold PBS/vanadate.
# 3) Scrape the cells. Remove the PBS-cell solution and add in a falcon tube.
# 4) Name a new 1.5 ml Eppendorf tube and put on ice to pre-chill.
# 5) Centrifuge the cells at 1500 for 5 minutes at 4° C. Remove supernatant and re-suspend the cells in 600 uL NP40 lysis buffer by pipetting up and down. If the cell pellet is small use less volume, for example 300 μl)
# 6) Transfer the lysing cells into the pre-chilled Eppendorf tube. Incubate on ice for 20 minutes. If not continuing the DARTS on the same day, you can put the lysate in −30 and work on it later.
# 7) Centrifuge the tube at maximum speed for 25-30 minutes at 4° C.
# 8) Discard the pellet (either transfer the supernatant in a new tube or just take out the pellet). […]
# 20) The samples are ready for Western blot gel running. […]
# [2] = system: 42D^ENZR cells vs 16D^CRPC cells; assay: Cell proliferation specificity, 42D^ENZR cells vs 16D^CRPC cells; type: cell-based; details: 42D cells express BRN2, 16D cells do not; some also LNCaP; result in words
# Description: Plate 42DENZR (˜7000 cells per well) and 16D^CRPC (˜5000 cells per well) cells in 96 well plate with a volume of 100 μL per well. • 2. Next day 1 mL aliquots of media are combined with 3× the desired concentration of compounds. The aliquots are vortexed and 50 μL of each 3× concentration is added to the 100 μL of media in each well to give the ix desired concentration.
# The following are the desired concentrations:
# 0, 10 nM, 100 nM, 500 nM, 1 μM, 2.5 μM, 5 μM, 10 μM, 15 μM, […], 30 μM. • 3. Approximately 72 hours later, 17 μL of 10% Glutaraldehyde is added to each well and plates are placed on a shaker for 20-30 minutes. • 4. Media is washed off the fixed cells by slow submersion in a container of water. Then the water is removed by tapping the plate upside down. • 5. 75 μL of Crystal Violet™ solution is added into the 96 well plates and placed on a shaker for ˜30 minutes. • 6. Media is washed off the fixed cells by repeated slow submersion in a container of water and the plates are allowed to dry over-night. • 7. Next day, 75 μL of Sorensen Solution is accurately pipetted into each well. The plates placed on a shaker for ˜30 minutes. • 8. Absorbance is measured in the plate at 590 nm.
# Compounds that Show Specificity Towards 42D^ENZR Cells Vs 16D^CRPC Cells Progress to Step 4.
# Where data is not available “na” is inserted.
Structure (SMILES),DARTS binding [1],specificity [2]
Clc1cc2cc(-c3csc(-c4ccc[nH]4)n3)oc2cc1Cl [VPC-18-142],binding,not 16D
"FC(F)(F)c1ccc2cc(-c3csc(-c4ccco4)n3)oc2c1 [VPC-18-51, 2-(Furan-2-yl)-4-(6-(trifluoromethyl)benzofuran-2-yl)thiazole]",binding,specific 42D not 16D
